Test results: ChEMBL document CHEMBL1201862, “PubChem BioAssay data set” (2004)
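Grown in 96-well plates, cells were treated for 48 hours with each compound at five concentrations. Insufficient inhibition: endpoint recorded as highest concentration tested. GI50 marks 50% less growth.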 Activity calls are given as the source filed them. Cut-off read from the data, not from the text of the source: active = GI50 up to about 1.1 µM and inactive = higher.

Legend:
Assay in all cases: NCI anticancer screen, dose series, 48 h
ACHN = system: ACHN
A549 = system: A549
SK-OV-3 = system: SK-OV-3
HOP-92 = system: HOP-92
RPMI-8226 = system: RPMI-8226
NCI-H522 = system: NCI-H522
SF-268 = system: SF-268
SK-MEL-2 = system: SK-MEL-2
NCI-H226 = system: NCI-H226
OVCAR-3 = system: OVCAR-3
UO-31 = system: UO-31
SK-MEL-28 = system: SK-MEL-28
SNB-19 = system: SNB-19
SF-295 = system: SF-295
RXF 393 = system: RXF 393
MDA-MB-231 = system: MDA-MB-231
COLO 205 = system: COLO 205
PC-3 = system: PC-3
NCI/ADR-RES = system: NCI/ADR-RES
MDA-N = system: MDA-N

Structure (SMILES) | GI50 (ACHN) | GI50 (A549) | GI50 (SK-OV-3) | GI50 (HOP-92) | GI50 (RPMI-8226) | GI50 (NCI-H522) | GI50 (SF-268) | GI50 (SK-MEL-2) | GI50 (NCI-H226) | GI50 (OVCAR-3) | GI50 (UO-31) | GI50 (SK-MEL-28) | GI50 (SNB-19) | GI50 (SF-295) | GI50 (RXF 393) | GI50 (MDA-MB-231) | GI50 (COLO 205) | GI50 (PC-3) | GI50 (NCI/ADR-RES) | GI50 (MDA-N)
CC(=O)/C(=C\C1=CCCO1)C(=O)Nc1ccccc1C | > 100 µM (inactive) | > 100 µM (inactive) | > 100 µM (inactive) | > 100 µM (inactive) | > 100 µM (inactive) | > 100 µM (inactive) | > 100 µM (inactive) | > 100 µM (inactive) | > 100 µM (inactive) | > 100 µM (inactive) | > 100 µM (inactive) | > 10 µM (inactive) | > 100 µM (inactive) | > 100 µM (inactive) | > 100 µM (inactive) |  |  |  |  | 
O=c1ccc(=O)c2c1c1[nH]c3ccccc3c1c1c(=O)c3ccccc3c(=O)c21 | > 10 µM (inactive) | > 10 µM (inactive) | > 10 µM (inactive) | 0.333 µM (active) | > 10 µM (inactive) | > 10 µM (inactive) | > 10 µM (inactive) | > 10 µM (inactive) | > 10 µM (inactive) | > 10 µM (inactive) | 5.66 µM (inactive) | > 10 µM (inactive) | > 10 µM (inactive) | > 10 µM (inactive) | > 10 µM (inactive) | 5.36 µM (inactive) | > 10 µM (inactive) | > 10 µM (inactive) | > 10 µM (inactive) | 
N#CC(C(=O)C(=O)NCCCNC(=O)C(=O)C(C#N)c1ccccc1)c1ccccc1 (configuration not stated) | > 100 µM (inactive) | > 100 µM (inactive) | > 100 µM (inactive) | > 100 µM (inactive) | > 100 µM (inactive) | > 100 µM (inactive) | > 100 µM (inactive) | > 100 µM (inactive) | > 100 µM (inactive) | > 100 µM (inactive) | > 100 µM (inactive) | > 100 µM (inactive) | 5.33 µM (inactive) | > 100 µM (inactive) | > 100 µM (inactive) |  | > 100 µM (inactive) |  |  | 
NS(=O)(=O)c1nnc(NSc2ccc([N+](=O)[O-])cc2)s1 | > 100 µM (inactive) | > 100 µM (inactive) | > 100 µM (inactive) | > 100 µM (inactive) | 49.7 µM (inactive) | 23.7 µM (inactive) | > 100 µM (inactive) | > 100 µM (inactive) | > 100 µM (inactive) | > 100 µM (inactive) | > 100 µM (inactive) | > 100 µM (inactive) | > 100 µM (inactive) | > 100 µM (inactive) | > 100 µM (inactive) | > 100 µM (inactive) | > 100 µM (inactive) |  | > 100 µM (inactive) | > 100 µM (inactive)
COc1ccc(-c2cc(=O)c3c(OC)c(OC)c(OC)c(OC)c3o2)c(OC)c1 | 24.8 µM (inactive) | 32.6 µM (inactive) | 39.8 µM (inactive) | 14 µM (inactive) | 33 µM (inactive) | 12.9 µM (inactive) | 51.5 µM (inactive) | 19.1 µM (inactive) | 31 µM (inactive) | 13.4 µM (inactive) | 20.6 µM (inactive) | 42.9 µM (inactive) | 32.8 µM (inactive) | 18.4 µM (inactive) | 36.7 µM (inactive) | 25.1 µM (inactive) | 17.1 µM (inactive) |  | 16.8 µM (inactive) | 29.1 µM (inactive)
Nc1nc(N)c2cc(Sc3cccc(C(F)(F)F)c3)ccc2n1 [WR-159412] | 0.885 µM (active) | 0.367 µM (active) | 9.08 µM (inactive) | 2.94 µM (inactive) | 1.93 µM (inactive) | 2.7 µM (inactive) | 2.22 µM (inactive) | 2.23 µM (inactive) |  | 3.87 µM (inactive) | 1.2 µM (inactive) | 4.46 µM (inactive) | 4.81 µM (inactive) | 0.656 µM (active) |  | 0.364 µM (active) | 1.21 µM (inactive) |  | 0.955 µM (active) | 0.371 µM (active)
CC(C)c1cccc(C(C)C)c1NC1=CC(=O)C(=O)c2ccccc21 |  | > 100 µM (inactive) | > 100 µM (inactive) | > 100 µM (inactive) | > 100 µM (inactive) | 58.6 µM (inactive) | > 100 µM (inactive) | > 100 µM (inactive) | > 100 µM (inactive) | > 100 µM (inactive) | > 100 µM (inactive) | > 100 µM (inactive) | > 100 µM (inactive) | > 100 µM (inactive) | > 100 µM (inactive) |  | > 100 µM (inactive) |  |  | 
C/C(Nc1ccc(F)cc1)=C1/CCOC1=O | 1.8 µM (inactive) | 90.4 µM (inactive) |  | > 100 µM (inactive) | > 100 µM (inactive) | > 100 µM (inactive) | > 100 µM (inactive) |  | 91.6 µM (inactive) | > 100 µM (inactive) | 92.3 µM (inactive) | > 100 µM (inactive) | > 100 µM (inactive) | 16.5 µM (inactive) | 4.73 µM (inactive) | > 100 µM (inactive) | 4.7 µM (inactive) | 46.5 µM (inactive) | > 100 µM (inactive) | 
